This note sets out measurements from PubChem BioAssay (NCI).

Molecules are shown by their SMILES.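 Five concentrations, 48 hours, 96-well plates. Here, GI50 denotes the concentration required for 50% inhibition of growth. TGI: total growth inhibition.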

What all share (test): NCI anticancer screen, dose series, 48 h
The test system of assay [1] is 786-0 renal.
The subject of assay [2] is SK-MEL-5 melanoma.
Assay [3] relates to EKVX NSCLC.
The test system of assay [4] is K-562 leukemia.
Assay [5] deals with COLO 205 colon.
Assay [6] has as its system SR leukemia.
For assay [7], the system named is T-47D breast.
The test system of assay [8] is SK-MEL-2 melanoma.
In assay [9] the test system is MDA-MB-435.

`Cc1occ2c1C(=O)CC1C2[C@@H](O)CC2C(C)(C)CCC[C@]12C` (stereo not given in full): the TGI in assay [1], in assay [2], in [3], in assay [4], in assay [5] and in [6] was above 100 µM throughout.

For the compound `COc1cc(OC)cc(-c2n/c(=C\c3c(O)[nH]c4ccc(Cl)cc34)cc3c2=Nc2ccccc2-3)c1`, the GI50 in assay [7] was 4.39 µM; in assay [8], 20.8 µM; in assay [9] it was 14 µM; in assay [2] it was 17.7 µM; in assay [3] it was 13.6 µM; in [4], 2720 nM. Moreover, the GI50 in assay [6] was 2240 nM. In addition, the TGI in [7] turned out to be 17 µM; in assay [8], 43.4 µM; in [9] it was 35.4 µM; in assay [2], 62.5 µM; in assay [3], 37.8 µM; in assay [4] it was 6.29 µM. The compound also registered a TGI in assay [6] of 5.59 µM.

As for `C#CCSc1nc(N)c2ncn(C3OC(COP(=O)(O)O)C(O)C3O)c2n1` (stereo not given), the TGI in [1], in assay [8], in assay [2], in [3], in assay [4] and in assay [5] was above 239 µM each time. In assay [6], this compound gave a TGI above 239 µM.

`COC(=O)C1=C(C)N(NC(=O)c2ccccc2)C2(O)CCCC(=O)C12C` (stereo not given): the TGI in [8], in assay [2] and in assay [5] was above 100 µM in each case.

As to `Cc1ccc(S(=O)(=O)c2ccc([N+](=O)[O-])o2)cc1`, the TGI in assay [7] is 6.24 µM; in [1], 3.26 µM; in assay [8] it was 28.7 µM; in assay [9] it was 3.69 µM; in assay [2], 23 µM; in assay [3], 7.79 µM. Further, the TGI in [5] is 2.27 µM.

Consider `CN1Cc2c(nc(-c3ccc(Br)cc3)c[n+]2[O-])N(C)C1`, for which the TGI in assay [1], in assay [8], in assay [2], in [3], in [4] and in [5] was above 100 µM in each case. This compound displayed a TGI in assay [6] above 100 µM.

As for `CC(=O)c1ccc(N2CCN(C3=CC(=O)c4c(O)ccc(O)c4C3=O)CC2)cc1`, the TGI in assay [7], in [1], in [3], in assay [4], in [5] and in assay [6] was above 100 µM in each case.

Regarding `CSc1ncc2c(n1)-c1ccccc1OC2NC(C)(C)C` (stereo not given), the TGI in assay [7], in [1], in [9], in assay [3], in assay [4] and in [5] was above 100 µM each time. In assay [6], this compound gave a TGI above 100 µM.

For the compound `CC(=O)Nc1ccc(C(=O)N2N=C(C)/C(=C/c3cccc([N+](=O)[O-])c3)C2=O)cc1`, the TGI in assay [1], in [2], in [3], in assay [4], in [5] and in assay [6] was above 100 µM in each case.

As to `C=CCC1(CC)C(=O)NC(=O)NC1=O`, the TGI in assay [1], in assay [3], in assay [4], in [5] and in assay [6] was above 100 µM each time.

For the compound `O=S1(=O)C(c2ccccc2)=C(O)c2ccccc21`, the TGI in [7], in assay [1], in assay [8], in [9], in assay [2] and in assay [3] was above 100 µM in each case. For the same compound, the TGI in assay [4] and in assay [5] was above 100 µM in each case.

Regarding `C/C=C/[C@H]1O[C@@](O)([C@@H](C)[C@H](O)[C@H](C)[C@H]2OC(=O)/C(OC)=C/C(C)=C/[C@@H](C)[C@@H](O)[C@@H](CC)[C@@H](O)[C@H](C)C/C(C)=C/C=C/[C@@H]2OC)C[C@H](OC2CC(O)C(OC(N)=O)C(C)O2)[C@@H]1C` (stereo not given in full), the TGI in assay [7] came to 2.12 µM; in assay [1], 15.7 µM; in assay [8], 3.22 µM; in assay [9] it was 14.8 µM; in assay [2], 0.231 µM; in [3], 20.5 µM. The values for the TGI in assay [4] and in assay [5] were 0.772 µM and 4.91 µM, respectively.

Regarding `COc1cccc(NC(=O)CC(=O)NNCC(=O)Nc2nnc(-c3ccc(N(CCC#N)S(=O)(=O)c4ccccc4)cc3)s2)c1`, the TGI in [8], in assay [2], in [3], in assay [4], in [5] and in assay [6] was above 100 µM throughout.

Take `CN(/N=N/c1nc[nH]c1C(N)=O)C1CCCCC1`: the TGI in assay [8], in [2], in [3], in assay [5] and in [6] was above 100 µM in each case.
